Data: patent US20230302159A1, “COMPOUNDS AND COMPOSITIONS FOR TUMOR DETECTION AND SURGICAL GUIDANCE” (Cornell University, priority 2020, published 2023)

Assays:
OVASAHO cells = test: In vitro fluorescence microscopy and intracellular localization; assay type: cell-based; settings: 2 μM, 1 hr; for Pearson value, overlap with the mitochondria tracker: co-staining with mitochondria tracker; for cellular fluorescence image in the presence of dye-containing medium (no washing): without washing
Procedure: Evaluation of CypH-11 in cancer cells. An ovarian cancer cell line, OVASAHO, was used to evaluate the performance of CypH-11, CypH-1, and Cy7. OVASAHO cells were incubated with the respective probe (2 μM) for 1 hr, and the cellular fluorescence images were captured in the presence of the dye-containing medium (FIG. 13A). […] This distinct difference is because of the pH sensitivity of CypH-11 and CypH-1. Both of them have low fluorescence in the cell culture medium (pH=7.4), but their fluorescence is turned on upon entering the cellular acidic compartments. […] After washing with a fresh culture medium, the cell images were captured again (FIG. 19). […] The intracellular distribution of dyes was investigated by co-staining with mitochondrial, lysosomal and nuclear trackers (FIG. 13B).
In vitro fluorescence microscopy. OVASAHO cells were used to compare the cellular performance and cellular distribution of CypH-11, CypH-1, and Cy7. OVASAHO cells (1.0×10^4) were seeded on a 96-well black plate (Corning, NY) and incubated in the supplemented medium for 24 hrs. Compounds (2 μM) were added and the cells were incubated for 1 hr. Before PBS washing, the cellular fluorescence images were captured with a fluorescence microscope (Cy7 filter, excitation: 690-730 nm and emission: 770-850 nm). After PBS washing (3×), the cellular images were captured again. For the co-localization experiment, OVASAHO cells (5.0×10^3) were incubated on a 96 well plate (ibiTreat, 180 μm coverslip, ibidi) with a clear and flat bottom. After treatment with CypH-11 (2 μM) or CypH-1 (2 μM) for 1 hr, the cells were washed with medium (3×). The cells were stained with Mitoview Green (Biotium, Parkway Fremont, CA) for 15 min or Lysoview 488 (Biotium) for 30 min. After washing with medium (3×), cells were further stained with DAPI (Invitrogen) for 10 min. The fluorescence images were captured using a fluorescence microscope (EVOS) after replacing the medium with a fresh cell culture medium. CypH-11 and CypH-1 images were obtained with a Cy7 filter, DAPI images with a DAPI filter (excitation: 352-402 nm and emission: 417-477 nm), Mitoview Green and Lysoview 488 images with a GFP filter (excitation: 457-487 nm and emission: 502-538 nm).

[1] = Relative quantum yield measurement against ICG standard; assay type: physicochemical; settings: at pH 4.0, PBS
Procedure: Spectroscopic analysis. Stock solutions (1 mM in DMSO) of CypH-11, CypH-1, and Cy7 were stored at a −30° C. freezer and used for the following experiments. For the pKa measurement, the respective compound was diluted in 20 mM phosphate-buffered solution (PBS, pH 2.0-11.0) to a final concentration of 2 μM. The fluorescence intensity (λex=725 nm and λcm=785 nm) was measured on a plate reader (Tecan Infinite M1000 Pro), and the fluorescence images were recorded with a fluorescence imaging system (Bruker In-vivo F Pro). For the quantum yield measurement, indocyanine green (ICG, Φ=1.2% in water) was used as the standard compound. The respective compound (0.4, 0.8, 1.2, 1.6, and 2.0 μM) in PBS solutions (pH=4.0 and pH=7.4) was measured using a Cary 60 UV-Vis spectrophotometer and Cary Eclipse fluorescence spectrophotometer (Agilent). The slope of fluorescence vs absorbance was compared with that of ICG to calculate the relative quantum yield.

SMILES | cellular fluorescence after washing (OVASAHO cells) | Pearson value, overlap with the mitochondria tracker (OVASAHO cells) | cellular fluorescence image in the presence of dye-containing medium (no washing) (OVASAHO cells) | quantum yield (Φ) [1] [%]
CN(C)c1ccc(OC2=C(/C=C/C3=[N+](C)c4ccccc4C3(C)C)CCC/C2=C\C=C2\N(C)c3ccccc3C2(C)C)cc1.[Cl-] [CypH-1, reference compound] | high fluorescence | 0.90 | Strong intracellular fluorescence and low medium fluorescence | –
CC(C)N(C)c1ccc(OC2=C(/C=C/C3=[N+](C(C)C)c4ccccc4C3(C)C)CCC/C2=C\C=C2\N(C(C)C)c3ccccc3C2(C)C)cc1.[I-] [CypH-11] | high fluorescence | 0.70 | Strong intracellular fluorescence and low medium fluorescence | 3.3
